Measured values from article PMC2228077, “The bioavailability of oral GI147211 (GG211), a new topoisomerase I inhibitor” (British Journal of Cancer, 1997).
Where a name gives a salt, the structure may show the parent alone. Read-outs that look alike come from different tables or passages of the source.

Experiments:
[1] = Toxicity assessment (CTC criteria) in patients, oral day 1 + i.v. days 2-5 every 3 weeks; format: in vivo, human; conditions: for Abdominal discomfort, drug-related toxicity per course / Diarrhoea, drug-related toxicity per course / Nausea, drug-related toxicity per course / Stomatitis, drug-related toxicity per course: CTC grade 1; for Abdominal discomfort, drug-related toxicity per course / Diarrhoea, drug-related toxicity per course / Nausea, drug-related toxicity per course / Stomatitis, drug-related toxicity per course / Fatigue, drug-related toxicity per course / Vomiting, drug-related toxicity per course: Table 2
Text: British Journal of Cancer (1997) 76(7), 946-951 ? 1997 Cancer Research Campaign The bloavailability of oral Gil 47211 (GG21 1), a new topoisomerase I inhibitor CJH Gerrits', JHM Schellens', GJ Creemers', P Wissel2, ASTh Planting', JF Pritchard2, S DePee2, M de Boer-Dennert', M Harteveld' and J Verweij' 'Department of Medical Oncology, Rotterdam Cancer Institute (Daniel den Hoed Kliniek) and University Hospital, The Netherlands; 2Glaxo Wellcome, Department of Pharmacokinetics, NC, USA Summary Topoisomerase I inhibitors are new compounds of interest for cancer chemotherapy. We performed a study with Gl147211, a new semisynthetic camptothecin analogue, to determine the absolute bioavailability of the drug given orally. […] Gi147211 was given orally on day 1 and as a 30-min infusion daily on days 2-5. The treatment course was repeated every 3 weeks. In subsequent patient cohorts, the dose of the oral formulation was escalated from 1.5 mg m-2 to 6.0 mg m-2; the dose for i.v. administration was fixed at 1.2 mg m-2. Plasma pharmacokinetics was performed on day 1 and 2 of the first course and on day 1 of the second course using a validated high-performance liquid chromatographic assay. […] Keywords: G1147211 (GG211); bioavailability; topoisomerase I inhibitor; phase I study G1147211 [7-(methylpiperazinomethylene)-10,11-ethylenedioxy- 20(S)-camptothecin dihydrochloride] is a water-soluble semisyn- thetic analogue of camptothecin (CPT). […] Its further development was stopped because of unpredictable and severe myelosuppression, gastro- intestinal toxicity and haemorrhagic cystitis (Gottlieb et al, 1970; Creaven et al, 1972; Muggia et al, 1972). Interest in CPT was renewed in the 1980s, because topoiso- merase I was identified as the single cellular target of CPT (Hsiang et al, 1988 1989), and an overexpression of topoisomerase I was found in various tumour cell lines but not in normal tissues (Giovanella et al, 1989; Hirabayashi et al, 1992). Topoisomerase I is a nuclear enzyme that resolves topological problems of the torsionally strained (supercoiled) DNA by forming a covalent adduct between topoisomerase I and the DNA, termed the cleav- able complex. This catalytic intermediate creates single-strand DNA breaks, allowing the DNA molecule to rotate around the intact DNA strand at the cleavage site, leading to a relaxation of Received 29 November 1996 Revised 27 March 1997 Accepted 1 April 1997 Correspondence to: CJH Gerrits, Department of Medical Oncology, Rotterdam Cancer Institute, (Daniel den Hoed Kliniek) and University Hospital, Groene Hilledijk 301, 3075 EA Rotterdam, The Netherlands the DNA molecule, and in this way replication, transcription and other DNA functions can proceed. These enzyme-bridged breaks are then resealed by topoisomerase I (Champoux, 1976; Muller, 1985; Muller et al, 1985; Camilloni et al, 1989). […] It has been documented that camptothecin (CPT) interferes with the breakage-reunion process of topoiso- merase I by stabilizing the enzyme-DNA cleavable complexes (Liu et al, 1989).

[2] = test system: solid tumour; assay: Tumour response (WHO criteria) in patients; format: in vivo, human; conditions: 17 evaluable patients
Text: British Journal of Cancer (1997) 76(7), 946-951 ? 1997 Cancer Research Campaign The bloavailability of oral Gil 47211 (GG21 1), a new topoisomerase I inhibitor CJH Gerrits', JHM Schellens', GJ Creemers', P Wissel2, ASTh Planting', JF Pritchard2, S DePee2, M de Boer-Dennert', M Harteveld' and J Verweij' 'Department of Medical Oncology, Rotterdam Cancer Institute (Daniel den Hoed Kliniek) and University Hospital, The Netherlands; 2Glaxo Wellcome, Department of Pharmacokinetics, NC, USA Summary Topoisomerase I inhibitors are new compounds of interest for cancer chemotherapy. We performed a study with Gl147211, a new semisynthetic camptothecin analogue, to determine the absolute bioavailability of the drug given orally. […] Gi147211 was given orally on day 1 and as a 30-min infusion daily on days 2-5. The treatment course was repeated every 3 weeks. In subsequent patient cohorts, the dose of the oral formulation was escalated from 1.5 mg m-2 to 6.0 mg m-2; the dose for i.v. administration was fixed at 1.2 mg m-2. Plasma pharmacokinetics was performed on day 1 and 2 of the first course and on day 1 of the second course using a validated high-performance liquid chromatographic assay. […]

[3] = test system: xenografts of human cancers, including HT-29 and SW-48 colon, PC-3 prostate, MX-1 breast, H460 lung, SKOV3 ovarian and KB epidermoid carcinomas; set-up: method as in Emerson et al, 1993, 1995; conditions: ref Emerson et al, 1993, 1995; cited from earlier work
[4] = intravenous route; cited from earlier work
[5] = set-up: method as in Gerrits et al, 1996; conditions: i.v. daily x5 every 3 weeks; ref Gerrits et al, 1996; cited from earlier work
[6] = mouse, in vivo; cited from earlier work
[7] = dog, in vivo; cited from earlier work
[8] = oral 6.0 mg m-2 level, discussion

SMILES: CC[C@@]1(O)C(=O)OCc2c1cc1n(c2=O)Cc2c-1nc1cc3c(cc1c2CN1CCN(C)CC1)OCCO3 [GI147211, 7-(methylpiperazinomethylene)-10,11-ethylenedioxy-20(S)-camptothecin dihydrochloride]
- ANC nadir ([1]; 6.0 mg m-2 level, the one case with CTC grade IV): 9e+07 L⁻¹
- courses in which erythrocyte transfusions were given ([1]; CTC grade I-II anaemia occurred regularly): 24 out of 47
- platelet count, range ([1]; CTC grade III-IV thrombocytopenia): 4-40 x 109 l-1
- courses with fatigue CTC grade II ([1]; Table 2 footnote c): Four
- Abdominal discomfort, drug-related toxicity per course ([1]; Total, n = 47 courses): 6 courses
- Diarrhoea, drug-related toxicity per course ([1]; Total, n = 47 courses): 1 courses
- Nausea, drug-related toxicity per course ([1]; Total, n = 47 courses): 24 courses
- Stomatitis, drug-related toxicity per course ([1]; Total, n = 47 courses): 2 courses
- Fatigue, drug-related toxicity per course ([1]; Total, n = 47 courses): 16 courses
- myelotoxicity ([1]; first two dose levels (1.5 and 3.0 mg m-2 oral)): not observed
- duration of severe granulocytopenia, range ([1]; human, in vivo): 7 to 19 days
- duration of severe thrombocytopenia, range ([1]; human, in vivo): 3 to 16 days
- median duration of severe granulocytopenia (first occurrence to recovery to CTC grade II) ([1]; human, in vivo): 7 days
- median duration of severe thrombocytopenia (first occurrence to recovery to CTC grade II) ([1]; human, in vivo): 8 days
- nausea and vomiting after oral administration compared with intravenous dosing ([1]; human, in vivo): not different
- neutropenic sepsis (main serious adverse event) ([1]; human, in vivo): one
- patients complaining of mild fatigue ([1]; human, in vivo): 34%
- patients with treatment delay because of slow recovery of mild leucopenia ([1]; human, in vivo): six
- renal and liver toxicity ([1]; human, in vivo): not reported
- diarrhoea after a single oral administration ([1]; human, in vivo, po): did not result in diar- rhoea
- tolerability of oral administration ([1]; human, in vivo, po): well tolerated
- courses with mild leucopenia CTC grade I-II ([1]; of 47 courses): 17 courses
- mild leucopenia CTC grade I-II, share of courses ([1]; of 47 courses): 36.2%
- nausea CTC grade I, share of courses ([1]; of 47 courses): 51.6%
- vomiting CTC grade I, number of courses ([1]; of 47 courses): 9 courses
- vomiting CTC grade I, share of courses ([1]; of 47 courses): 19.1%
- reversible CTC grade I peripheral neuropathy ([1]; one patient): 2.1%
- day of the platelet nadir [1, 8]: 8 days
- day of the platelet nadir, range [1, 8]: 3 to 16 days
- onset of neutropenia CTC grade III-IV ([1]; oral 6.0 mg m-2 day 1 + i.v. 1.2 mg m-2 days 2-5, discussion): 7 to 19 days
- Abdominal discomfort, drug-related toxicity per course ([1]; oral dose level 1.5 mg m-2): 0 courses
- Diarrhoea, drug-related toxicity per course ([1]; oral dose level 1.5 mg m-2): 0 courses
- Nausea, drug-related toxicity per course ([1]; oral dose level 1.5 mg m-2): 4 courses
- Stomatitis, drug-related toxicity per course ([1]; oral dose level 1.5 mg m-2): 0 courses
- Fatigue, drug-related toxicity per course ([1]; oral dose level 1.5 mg m-2): 4 courses
- Vomiting, drug-related toxicity per course ([1]; oral dose level 1.5 mg m-2): 2 courses
- Abdominal discomfort, drug-related toxicity per course ([1]; oral dose level 3.0 mg m-2): 3 courses
- Diarrhoea, drug-related toxicity per course ([1]; oral dose level 3.0 mg m-2): 0 courses
- Nausea, drug-related toxicity per course ([1]; oral dose level 3.0 mg m-2): 4 courses
- Stomatitis, drug-related toxicity per course ([1]; oral dose level 3.0 mg m-2): 1 courses
- Fatigue, drug-related toxicity per course ([1]; oral dose level 3.0 mg m-2): 2 courses
- Vomiting, drug-related toxicity per course ([1]; oral dose level 3.0 mg m-2): 2 courses
- courses postponed for 1 week because of mild leucopenia with slow recovery ([1]; oral dose level 6.0 mg m-2): 10 out of 30
- courses with CTC grade III-IV granulocytopenia ([1]; oral dose level 6.0 mg m-2): 5 out of 30
- courses with CTC grade III-IV thrombocytopenia ([1]; oral dose level 6.0 mg m-2): 4 out of 30
- Abdominal discomfort, drug-related toxicity per course ([1]; oral dose level 6.0 mg m-2): 3 courses
- Diarrhoea, drug-related toxicity per course ([1]; oral dose level 6.0 mg m-2): 1 courses
- Nausea, drug-related toxicity per course ([1]; oral dose level 6.0 mg m-2): 16 courses
- Stomatitis, drug-related toxicity per course ([1]; oral dose level 6.0 mg m-2): 1 courses
- Fatigue, drug-related toxicity per course ([1]; oral dose level 6.0 mg m-2): 10 courses
- Vomiting, drug-related toxicity per course ([1]; oral dose level 6.0 mg m-2): 7 courses
- abdominal discomfort, mostly cramping, share of courses ([1]; six courses): 13%
- nadir for neutropenia ([1]; summary): 8 days
- nadir for thrombocytopenia ([1]; summary): 15 days
- alopecia grade I, share of patients ([1]; three patients): 17%
- median platelet count ([1]; three patients with CTC grade III-IV thrombocytopenia): 2.5e+10 L⁻¹
- mild headache, share of courses ([1]; two courses, not dose dependent): 4.2%
- vomiting CTC grade II, share of cycles ([1]; two cycles): 4.2%
- best response to treatment [2]: stable disease in seven patients
- activity against xenografts of human cancers [3]: significant cytotoxicity
- main toxicity in animal toxicology studies [4]: myelosuppression was the main toxicity and was dose limiting
- main toxicity [5]: myelosuppression
- absolute bioavailability [6]: 2-5%
- absolute bioavailability [7]: 16%
